According to patent publication US20030036513A1, “Method for treating cancer” (priority 1999, published 2003):

Legend:
Human LNCaP cells = test: Two-step arsenic then Mesna treatment of human LNCaP cells: apoptosis and glutathione levels (FIG. 1); type: cell-based
Method: In one aspect, the present invention further provides a method of using a redox clamping agent as a chemosensitizer comprising contacting tumor cells with a specific class of cytotoxic agent for a period of time, preferably between 2 and 4 hours, and then washing the agent from the cells and administering the redox clamping agent. It is preferred that the redox clamping agent is Mesna. The cytotoxic or anti-cancer agents used in this design would be those such as arsenic, hydrogen peroxide and other anti-cancer agents that are known to induce a cytotoxic effect by interacting with, depleting or sequestering cellular thiols. During the two to four hour treatment these anti-cancer agents deplete cellular thiols and induce apoptotic mechanisms in the cells. However, the stress-response that is induced in the cells by these anti-cancer agents also up-regulates the production of antioxidants such as glutathione and metallothionein. These antioxidants function as potent inhibitors of apoptosis. If redox clamping agents are added after the apoptotic mechanisms are initiated, but prior to the antioxidant rebound, the redox clamping agents will function in two ways to enhance the cytotoxic effects of the anti-cancer agents. It is preferred that the redox clamping agent be Mesna, which is a thiol with low reducing potential. First, the redox clamping agents will permit the progression of apoptotic signals and the mechanisms required to mediate cell death. Secondly, the redox clamping agents will promote the apoptotic response by dramatically attenuating the antioxidant “rebound” that is associated in the inhibition of apoptosis. Redox clamping agents chemically interact with the anti-cancer agent or oppose aspects of the early stress-response that is induced by pure oxidants. Therefore, a two-step treatment protocol is required.
Human LNCaP cells, treated with 100 uM arsenic for 2 hours then washed and re-fed with normal medium, develop an elevation in cellular glutathione levels over a 24-hour period. Since exogenous antioxidants are known to be potent inhibitors of apoptotic mechanism, it is believed that internally-produced antioxidants such as glutathione function in a similar manner. […] Although Mesna increases apoptosis alone, the low concentrations of Mesna utilized in this two-step treatment protocol increased apoptosis minimally i.e., to 11 percent from a background of 3 to 5 percent in untreated cells.
(§1) In all of the experiments associated with the investigation of Mesna as a redox clamping agent, as a stand-alone anticancer agent as well as a chemosensitizer, the cell culture medium used was Swim's S-77 medium containing 12 uM cystine, instead of conventional levels of this amino acid (i.e., 50 uM). […]

H4 Rat Hepatoma cells = test: Stress-induced antioxidant upswing in H4 Rat Hepatoma cells after hydrogen peroxide; type: cell-based; conditions: 100 uM hydrogen peroxide for two hours, medium replaced; determined after 24 hours in culture
Method: To further exemplify the redox clamping properties of Mesna, stress was induced in H4 Rat Hepatoma cells by treatment with 100 uM hydrogen peroxide for two hours and then the medium was removed and replaced with an anti-cancer agent. The cellular viability, as well as glutathione and metallothionein levels were determined after 24 hours in culture. […] The inhibition of stress induced upswing in antioxidant levels is characteristic of redox clamping agents.
In all of the experiments associated with the investigation of Mesna as a redox clamping agent, as a stand-alone anticancer agent as well as a chemosensitizer, the cell culture medium used was Swim's S-77 medium containing 12 uM cystine, instead of conventional levels of this amino acid (i.e., 50 uM). All other components of the medium were maintained at conventional concentrations. […] The ability of cystine to supply cells with cysteine, which then function as a precursor amino acid for glutathione synthesis, is thought to be responsible for the abnormally high basal levels of glutathione in cultured tumor cell lines.

human tumor cell lines = test: Growth inhibition of human tumor cell lines in culture; type: cell-based
Source text: The present invention provides a method of treating lymphoma, ovarian cancer, colorectal cancer, or gastric cancer comprising administering an effective amount of Mesna to a patient with lymphoma, ovarian cancer, colorectal cancer or gastric cancer. Mesna inhibits the growth of several human tumor cell lines in culture, and there are no strict relationships between the histopathological origin of the cell lines and the sensitivity of the cell lines to Mesna. […] It is further preferred that the patient be administered Mesna for a seven to ten day period. The doses may be cycled. The actual dose will be dependent on the size, type and location of the tumor as well as the overall status of the patient. It is preferred that high concentrations of Mesna be administered intravenously to achieve clamping initially, with further administration of oral doses to maintain the clamped state. […] Cancer cell lines were growth inhibited when Mesna was administered on several consecutive days. Mesna has shown good activity in preventing the urotoxicity of oxazaphosphorine compound.
as §1

[1] = tested on: metastatic and/or relapsed tumors refractory to conventional therapy; test: Clinical study of oral Mesna as single agent in 14 patients with metastatic and/or relapsed tumors refractory to conventional therapy; type: in vivo, human
Method: From December 1996 to March 1998 a study was performed on 14 ambulatory patients with metastatic and/or relapsed tumors refractory to conventional therapy. Eligibility criteria included histologically-confirmed advanced cancer, patients age was greater than 18 years, with a life expectancy no less than two months. The patients had not undergone major surgery within 2 weeks, or radiotherapy and/or chemotherapy within one month of the study. […] Exclusion criteria included active uncontrolled infection, pregnancy, lactation and any other co-existing medical problems severe enough to prevent full compliance with the study. Objectively measurable disease in the patients was required. All patients gave informed written consent before treatment. 600 mg/m^2 of Mesna was given by oral route four times a day, masked in orange juice for 10 consecutive days. Cycles were repeated every 15 days. No simultaneous chemotherapy and or radiotherapy and no other supportive care was given. The main objective of the study was to determine the anti-tumoral activity and toxicity of Mesna for heavily and or refractory pretreated cancer patients. […] The patients were all previously treated with between two and four different chemotherapy regimens. Mesna was administered as a single agent to all of the patients in the study. The toxic effects of Mesna and number of nodes were assessed during the first cycle of Mesna administration. […] For colorectal cancer a greater than 50% reduction of nodular lesions metastasized to liver was registered, during the second schedule of therapy. For gastric cancer a greater than 50% reduction of a subcutaneous nodule was measured during the second course of Mesna treatment.

[2] = within a few minutes after administration; cited from earlier work
[3] = even in very high dose, i.e. 1000 mg/kg; cited from earlier work
cells = test: Chemosensitizing of an anti-cancer agent by a co-administered redox clamping agent (FIG. 2); type: cell-based
Source text: The present invention further provides a method of reducing the effective dose of an anti-cancer agent necessary to be effective against cancer comprising administering a redox clamping agent in conjunction with an anti-cancer agent. It is preferred that the redox clamping agent is Mesna or DMSA. Redox clamping agents have the ability to maintain cells in a selected redox state. […] Redox clamping agents are useful in enhancing the therapeutic activity of chemotherapeutic agents such as butyrate that are dependent upon the redox state of the cell. Redox clamping agents are further useful in controlling hyperproliferation of cells and conditions associated with abnormal fluctuations in the redox state of cells. In one aspect, this invention provides a method of treating cancerous tumors comprising administering an effective dose of an anti-cancer agent in conjunction with a redox clamping agent, wherein the redox clamping agent acts as a chemoenhancer or a chemosensitizer. […] The administration of Mesna in conjunction with an anti-cancer agent may be as separate compounds or in a composition formulated and titrated to a dose and in a concentration that would achieve the optimal therapeutic dose of the anti-cancer agent providing a higher tumor cell kill with a lower dose of the anti-cancer agent than the typical therapeutic dose administered to a patient. […]

[4] = arsenic treated cells washed and incubated in medium containing 100 uM Mesna

## [AsH3] [arsenic]
Human LNCaP cells; 100 uM arsenic for 2 hours, then washed and re-fed with normal medium, 24-hour period
  apoptosis of the cells: 28%

## O=C(O)[C@@H](S)[C@@H](S)C(=O)O [DMSA]
H4 Rat Hepatoma cells
  effect on stress-induced upswings in antioxidant levels (glutathione, metallothionein): oppose stress-induced upswings in antioxidant levels

## O=S(=O)([O-])CCS.[Na+] [Mesna, Sodium-2-mercaptoethane sulphonate]
Human LNCaP cells; [4]
  elevation in glutathione levels: dramatically diminished
  fraction of apoptotic cells compared to arsenic alone: increased more than two-fold
Human LNCaP cells; low concentration of Mesna as used in the two-step protocol, background 3 to 5 percent in untreated cells
  apoptosis with Mesna alone: 11%
H4 Rat Hepatoma cells
  effect on stress-induced upswings in antioxidant levels (glutathione, metallothionein): oppose stress-induced upswings in antioxidant levels
Human tumor cell lines
  incorporation of 3H-thymidine, proline and uridine: inhibited incorporation
Human tumor cell lines; lymphoma, ovarian cancer, colorectal cancer, gastric cancer lines, drug administered on several consecutive days
  growth of human tumor cell lines in culture: inhibits growth of several human tumor cell lines
[1]; colorectal cancer patient, 600 mg/m^2 oral four times a day, second schedule of therapy
  reduction of nodular lesions metastasized to liver: greater than 50%
[1]; gastric cancer patient, 600 mg/m^2 oral four times a day, second course of treatment
  reduction of a subcutaneous nodule: greater than 50%
[1]; patients with lung cancer, soft tissue sarcoma, skin metastases of unknown origin, bladder cancer, melanoma and cancer of the cervix
  objective responses: No objective responses were achieved
[1]; two patients, 600 mg/m^2 oral four times a day for 10 days, cycles every 15 days, second and third course respectively
  clinical response in ovarian cancer patients: reduced ascites and pain
[2]
  administered dose transformed into Mesna disulphide: more than 90%
[3]
  pharmacological and toxicological behaviour: relatively inert substance

## CCCC(=O)O [Butyrate]
cells; butyrate alone
  concentration at which apoptosis is induced: greater than 3 mM
cells; in the presence of a redox clamping agent
  concentration giving an effective kill: ≥ 0.5 mM
